From patent publication US8912184B1, “Therapeutic and diagnostic methods” (Alzheimer's Institute of America, Inc., priority 2010, dated 2014)

Tested on: HCT116 xenograft tumors
Test: HCT116 human colon carcinoma murine xenograft, tumor growth/regression
Type: in vivo, nu/nu mice
Procedure: Exemplary Compound A was tested for its ability to deplete NAD levels and promote tumor regression in an HCT116 (i.e., a Naprt-proficient cancer) murine xenograft model. Three million HCT116 human colon carcinoma cells were injected subcutaneously into nu/nu mice to form tumors. Dosing was started ten days later when median tumor volume was >100 mm^3.
Exemplary Compound A was administered orally to HCT116 tumor-bearing xenograft mice once (arrow) at the maximum tolerated dose of 75 mg/kg with or without simultaneous delivery of NA by Alzet pump (470 mg/kg/day for three days) (FIG. 8(b)).
(§1) The effect of weekly administration of Exemplary Compound A on tumor growth was examined in murine HCT116 xenograft models (FIG. 8(c)). HCT116 tumor-bearing xenograft mice were orally dosed with 75 mg/kg Exemplary Compound A weekly for three cycles (arrows), resulting in a maximal tumor response of 10% regression on day 18.
as §1, with “daily” for “weekly”, “8(d)).” for “8(c)).”, “10” for “75”, “21 days (black bar),” for “three cycles (arrows),”, “32%” for “10%”, “11.” for “18.”

SMILES: O=C(NCc1cccnc1)Nc1ccc(COc2ccccc2-c2ccccc2)cc1 [Exemplary Compound A, 1-{4-[(biphenyl-2-yloxy)methyl]phenyl}-3-(pyridin-3-ylmethyl)urea]
- maximal tumor response, regression (oral 10 mg/kg daily for 21 days, day 11): 32%
- maximal tumor response, regression (oral 75 mg/kg weekly for three cycles, day 18): 10%
- tumor regression induced by single dose, in the presence of NA (oral once 75 mg/kg, NA by Alzet pump 470 mg/kg/day for three days): completely prevented
